Assay results taken from ChEMBL document CHEMBL3301361, “Experimental in vitro DMPK and physicochemical data on a set of publicly disclosed compounds”.

Assay: physchem
Details: octan-1-ol/water, pH 7.4, LogD7.4

logD | Compound
2.45 | CCN(CCCOCCOCCc1ccccc1)CCc1ccc(O)c2nc(O)sc12
2.45 | Cc1cc(C)cc(CCOCCS(=O)(=O)NCCNCCc2ccc(O)c3nc(O)sc23)c1
2.47 | CC(C)C(NC(=O)Cn1c(-c2ccc(F)cc2)ncc(NC(=O)OCc2ccccc2)c1=O)C(=O)C(F)(F)F (stereo unspecified)
2.43 | CC(=O)Nc1cccc(S(=O)(=O)Nc2ccc(-c3ccccc3)n(CC(=O)NC(C(=O)C(F)(F)F)C(C)C)c2=O)c1 (stereo unspecified)
2.41 | COc1ccc(CCN2CN=C(SCc3ccc(Cl)cc3)NC2)cc1OC
2.4 | Nc1nc(N)nc(-c2cccc(C(F)(F)F)c2)n1
2.5 | CC(N)(COP(=O)(O)O)C(=O)O (stereo unspecified)
2.51 | CCCC(=O)C1(c2ccccc2)CCN(C(=O)[C@@H](Cc2ccc(OC)cc2)NC(=O)[C@@H](N)Cc2cncn2C)CC1
2.5 | Cc1ccc(-n2c(C)cc(C(=O)NS(=O)(=O)c3ccc(C)cc3)c2C)cc1
2.4 | Cn1cnc2cc(OC(=O)c3ccccc3)cnc21
2.4 | CC(=O)N1CCOc2nc(OCc3ccccc3)ccc21
2.5 | O=C1CCOc2nc(CCc3ccccc3)ccc21
2.5 | COC(=O)N1CCOc2cc(COc3ccccc3)cnc21
2.4 | CS(=O)(=O)N1CCOc2cc(COc3ccccc3)cnc21
2.5 | COc1ccccc1N1CCN(Cc2c(Br)c(=O)n(-c3ccccc3)n2C)CC1
2.5 | COc1cc(F)ccc1-c1cncc(CNC(=O)c2cnccn2)c1
2.51 | CCCCN(CCNC[C@H](O)c1ccc(O)c2[nH]c(=O)sc12)C(=O)CCOCCc1ccccc1
2.5 | CCOC(=O)c1ccc(COC2CN(c3ccc(C)nn3)C2)cc1
2.46 | COc1cccc(C(=O)NCCCOc2cccc3ccc(N)nc23)c1
2.54 | COc1cc(C(=O)Nc2cc(NC(=O)c3cccc(N(C)C)c3)ccc2C)cc(OC)c1OC
2.4 | O=C1Nc2ccc(S(=O)(=O)N3CCC[C@H]3CNc3ccccc3)cc2C1=O
2.45 | CSc1ccc(OCc2ccccc2)c(/C=C/c2ccc(C(=O)O)cn2)c1
2.54 | O=C(Cc1ccc(O)cc1)c1ccc(O)cc1O
2.41 | CC(Cc1cccc(CNCCc2c(Cl)cccc2Cl)c1)NC[C@H](O)c1ccc(O)c2[nH]c(=O)sc12 (stereo partly specified)
2.47 | CNc1c(Br)cnc2[nH]c(-c3ccc(O)cc3)nc12
2.48 | NC(=O)c1cnc2[nH]c(-c3ccc(OCCN4CCCCC4)cc3)nc2c1NCCCNC(=O)C1CCC1

logD | Compound
2.48 | Nc1cc2n[nH]c(=O)n2c2cc(-c3ccco3)ccc12
2.4 | O=C(Nc1ccc(N2CCOCC2)cn1)c1nnc(Nc2ccccc2F)o1
2.54 | O=C(Nc1ccc(Cl)c(Cl)c1)N1CCN(C[C@@H]2CCCN(CC3CC3)C2)CC1
2.47 | Cc1ccc(-c2ccc(N)nn2)cc1NC(=O)c1ccc(OCc2ccccn2)cc1
2.54 | Cc1ccc(-c2cn(C)cn2)cc1NC(=O)c1ccc(OCc2ccccn2)cc1
2.44 | Cc1ccc(-c2cc(C(F)(F)F)n[nH]2)cc1NC(=O)c1ccc(OCc2ccccn2)cc1
2.46 | Nc1nc(N)c(-c2ccc(NC(=O)C3CC3)cc2)c(COCc2ccccc2)n1
2.49 | CCCSc1ncccc1C(=O)N(C)[C@@H]1[C@@H]2CC3C[C@H]1C[C@@](O)(C3)C2
2.48 | CCCSc1ncccc1C(=O)N(C)[C@H]1[C@@H]2CC3C[C@H]1C[C@@](O)(C3)C2
2.42 | Cc1cc(Cl)ccc1OC1CCN(C[C@H](O)CNC(=O)c2c[nH]c(=O)c3cc(S(C)(=O)=O)ccc23)CC1
2.54 | CC1(O)CN(S(=O)(=O)c2ccc3c(C(=O)NC[C@@H](O)CN4CCC(Oc5ccc(Cl)c(Cl)c5)CC4)c[nH]c(=O)c3c2)C1
2.4 | CCCc1cc(OCc2ccccc2)cc(=O)n1Cc1ccc(-c2ccccc2-c2nn[nH]n2)cc1
2.5 | O=C(Cc1ccccc1)Nc1nccs1
2.4 | NC1(C(=O)N[C@@H](CCN2CCCCC2)c2ccc(Cl)cc2)CCN(c2ncnc3[nH]ccc23)CC1
2.4 | CN(C)C(=O)CC(NC(=O)C1(N)CCN(c2ncnc3[nH]ccc23)CC1)c1ccc(Cl)cc1 (stereo unspecified)
2.4 | CC(=O)NCC(NC(=O)C1(N)CCN(c2ncnc3[nH]ccc23)CC1)c1ccc(Cl)cc1 (stereo unspecified)
2.4 | NC1(C(=O)NC(CO)c2ccc(Cl)cc2)CCN(c2ncnc3[nH]ccc23)CC1 (stereo unspecified)
2.4 | CC(NC(=O)C1(N)CCN(c2ncnc3[nH]ccc23)CC1)c1ccc(F)cc1 (stereo unspecified)
2.47 | CN1CC=CCC(c2cc3ccccc3o2)C1 (stereo unspecified)
2.4 | O=C(CN1C(=O)C(NC(=O)c2cc3cc(Cl)sc3[nH]2)Cc2ccccc21)NO (stereo unspecified)
2.39 | Cc1ccn2c(-c3ccnc(N)n3)c(C)nc2c1
2.46 | CCOc1ccccc1-c1ccc(-c2nc3ccc(F)cc3c(C(=O)NCCOCCN)c2C)cc1
2.39 | O=C(NCCN1CCCC1)c1ccc(Nc2ncc3cc(-c4ccncc4)ccc3n2)cc1
2.5 | Cn1c(N)nc(CCc2cccc(-c3cccnc3)c2)cc1=O
2.52 | Nc1nc(CCc2cccc(Br)c2)cc(=O)[nH]1
2.55 | Cc1sc(CN2CCNCC2)cc1C(=O)NCC12CC3CC(CC(C3)C1)C2

logD | Compound
2.5 | Clc1cccc2[nH]ncc12
2.44 | Clc1ccc2[nH]ncc2c1
2.5 | CCOc1ccccc1-c1ccc(-c2nc3ccc(F)cc3c(N[C@H](C)C(=O)O)c2C#N)cc1
2.46 | COc1ccc2c(C)cc(N[C@H]3CCC[C@H](NCc4ccsc4)C3)nc2c1
2.53 | COc1ccc2c(C)cc(N[C@H]3CC[C@H](NCc4cn(C)c5ccccc45)C3)nc2c1
2.49 | COC(=O)c1nc2c(N[C@H](C)CO)nc(SCc3cccc(F)c3F)nc2[nH]c1=O
2.4 | Fc1ccc(-n2cc(C3CCNCC3)c3cc(Cl)ccc32)cc1
2.41 | CC(C)C(NC(=O)Cn1c(-c2ccccc2)ccc(NC(=O)OCc2ccncc2)c1=O)C(=O)C(F)(F)F (stereo unspecified)
2.54 | Oc1cc(-c2ccccc2)nc2ccccc12
2.5 | COc1ccc(S(=O)(=O)Nc2ccc(-c3ccccc3)n(CC(=O)NC(C(=O)C(F)(F)F)C(C)C)c2=O)cc1 (stereo unspecified)
2.5 | CNC(=O)C1(N2CCCCC2=O)CCN(CC[C@H](CN(C)C(=O)c2cc(C#N)cc3ccccc23)c2ccc(Cl)c(Cl)c2)CC1
2.52 | CN(C)C(=O)C1(N2CCCCC2=O)CCN(CC[C@H](CN(C)C(=O)c2cc(C#N)cc3ccccc23)c2ccc(Cl)c(Cl)c2)CC1
2.41 | Cc1ccc2c(-c3ccnc4cc(Cl)ccc34)c(C)n(CC(=O)O)c2c1
2.44 | CC(C)c1nnc2ccc(-c3ocnc3-c3cc(F)ccc3F)cn12
2.41 | COc1ccc2nc(N[C@H]3CCC[C@H](NCc4ccsc4)C3)cc(C)c2c1
2.47 | CN(CCOc1ccc(C[C@H](Nc2ccccc2C(=O)c2ccccc2)C(=O)O)cc1)c1nc2ccccc2o1
2.42 | O=C1C(=O)c2cc([N+](=O)[O-])ccc2-c2ccccc21
2.55 | CC(C)n1c(=O)n(C)c(=O)c2c(C(=O)N3CCS(=O)(=O)C3)c(Cc3ccccc3C(F)(F)F)sc21
2.39 | Cc1ncc(-c2ccnc(Nc3ccc(C(N)=O)cc3)n2)n1C(C)C
2.45 | Cc1ncc(-c2ccnc(Nc3ccc(C(=O)N(C)C)cc3)n2)n1C(C)C
2.39 | Nc1ccc2c(c1)-c1ccccc1C(=O)C2=O
2.53 | O=C(NCC1CCCCCC1)c1cc(-c2cccnc2N2CCC(C(=O)O)CC2)ccc1Cl
2.55 | COc1ccccc1-c1coc2cc(O)ccc2c1=O
2.5 | c1ccc(-c2nc3ccccc3[nH]2)nc1
